Reference: ChEMBL document CHEMBL1629509, “Design, synthesis and inhibitory activity against Mycobacterium tuberculosis thymidine monophosphate kinase of acyclic nucleoside analogues with a distal imidazoquinolinone” (Eur J Med Chem, 2010)
The source made the active and inactive calls. No cut-off for these calls is given here.

Test system: Mycobacterium tuberculosis variant bovis BCG
Test: Antimycobacterial activity against Mycobacterium bovis BCG Pasteur assessed as growth inhibition at 160 ug/ml by resazurin microtiter plate assay
Assay type: functional, organism-based

Row | SMILES | Activity
1 | O=c1[nH]c(=O)n(C/C=C/CN2c3cccc4c3N(CCC4)S2(=O)=O)cc1Br | inactive
2 | Cc1cn(C/C=C/Cn2c(=O)n3c4c(cc(N)cc42)CCC3)c(=O)[nH]c1=O | inactive
3 | Cc1cn(C/C=C/Cn2c(=O)n3c4c(cccc42)CC(N)C3)c(=O)[nH]c1=O (configuration not stated) | inactive
4 | CC(=O)NC1Cc2cccc3c2n(c(=O)n3C/C=C/Cn2cc(C)c(=O)[nH]c2=O)C1 (configuration not stated) | inactive
5 | Cc1cn(C/C=C/Cn2c(=O)n3c4c(cccc42)CCC3)c(=O)[nH]c1=O | inactive
6 | Cc1cn(C/C=C/CN2c3cccc4c3N(CCC4)S2(=O)=O)c(=O)[nH]c1=O | inactive
7 | CC(=O)Nc1cc2c3c(c1)n(C/C=C/Cn1cc(C)c(=O)[nH]c1=O)c(=O)n3CCC2 | inactive
